Like-named read-outs stand apart in the source and are kept apart here.
Assays:
[1] = biological target: GDP-bound HRAS wild-type protein (Homo sapiens, UniProt P01112); assay: Binding to HRAS by surface plasmon resonance (SPR), Single Cycle Kinetics; conditions: SPR, GDP-bound HRAS wild-type protein vs GDP-bound KRAS wild-type protein
[2] = biological target: GDP-bound NRAS wild-type protein (Homo sapiens, UniProt P01111); assay: Binding to NRAS by surface plasmon resonance (SPR), Single Cycle Kinetics; conditions: SPR, GDP-bound NRAS wild-type protein vs GDP-bound KRAS wild-type protein
Chain of GDP-bound NRAS wild-type protein (P01111 whole entry): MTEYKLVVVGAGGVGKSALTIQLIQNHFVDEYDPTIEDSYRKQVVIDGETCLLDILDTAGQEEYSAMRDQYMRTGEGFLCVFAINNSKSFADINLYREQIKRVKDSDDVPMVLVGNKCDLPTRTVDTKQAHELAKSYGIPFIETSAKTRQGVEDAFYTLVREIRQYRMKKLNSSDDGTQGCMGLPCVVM

[3] = biological target: GDP-bound KRAS wild-type protein (Homo sapiens, UniProt P01116); assay: Binding to KRAS by surface plasmon resonance (SPR), Single Cycle Kinetics; conditions: SPR, Single Cycle Kinetics, GDP-bound KRAS wild-type protein, read-out: KRAS KD
Chain of GDP-bound KRAS wild-type protein (P01116 whole entry): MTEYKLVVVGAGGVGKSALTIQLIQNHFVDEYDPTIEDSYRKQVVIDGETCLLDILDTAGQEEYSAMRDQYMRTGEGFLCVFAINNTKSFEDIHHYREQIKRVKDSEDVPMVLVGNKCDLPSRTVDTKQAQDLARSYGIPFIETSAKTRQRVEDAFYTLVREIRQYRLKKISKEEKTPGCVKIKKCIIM

Chain of GDP-bound HRAS wild-type protein (P01112 whole entry): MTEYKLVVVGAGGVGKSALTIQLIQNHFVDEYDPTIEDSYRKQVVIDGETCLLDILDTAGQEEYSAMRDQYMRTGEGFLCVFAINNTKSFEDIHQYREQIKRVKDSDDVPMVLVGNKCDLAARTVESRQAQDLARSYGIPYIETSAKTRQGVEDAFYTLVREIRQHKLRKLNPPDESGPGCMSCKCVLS

Row | Compound | HRAS/KRAS (ratio of KD value for HRAS to KD value for KRAS) [1] | NRAS/KRAS (ratio of KD value for NRAS to KD value for KRAS) [2] | Kd [3] [nM] | HRAS/KRAS (ratio of KD value for HRAS to KD value for KRAS) ([1]; KD ratio class) | NRAS/KRAS (ratio of KD value for NRAS to KD value for KRAS) ([2]; KD ratio class) | Kd ([3]; 1:1 binding model) [nM]
1 | CCO[C@@H]1C[C@H]2C(=O)NC3(CCC3)C(=O)N(C)[C@@H](C3CCCC3)C(=O)N(C)[C@H](C(=O)N3C[C@@H](C)O[C@@H](C)C3)CC(=O)N(C)[C@@H](CC(C)C)C(=O)N[C@@H]([C@@H](C)CC)C(=O)N(C)CC(=O)N(C)[C@H]3CCCCCN(C3=O)[C@@H](Cc3ccc(F)cc3)C(=O)N(C)CC(=O)N[C@@H](CCc3ccc(C(F)(F)F)c(Cl)c3)C(=O)N2C1 [PP1153] | B (a compound having 3 or more and less than 10 is denoted as B) | B (a compound having 3 or more and less than 10 is denoted as B) | 0.28 | – | – | –
2 | CCCO[C@@H]1C[C@H]2C(=O)NC3(CCC3)C(=O)N(C)[C@@H](C3CCCC3)C(=O)N(C)[C@H](C(=O)N3CCOCC3)CC(=O)N(C)[C@@H](CC(C)C)C(=O)N[C@@H]([C@@H](C)CC)C(=O)N(C)CC(=O)N(C)[C@H]3CCCCCN(C3=O)[C@@H](Cc3ccc(C(F)(F)F)cc3)C(=O)N(C)CC(=O)N[C@@H](CCc3cc(F)c(C(F)(F)F)c(F)c3)C(=O)N2C1 [PP1161] | B (a compound having 3 or more and less than 10 is denoted as B) | B (a compound having 3 or more and less than 10 is denoted as B) | 0.6 | – | – | –
3 | CCO[C@@H]1C[C@H]2C(=O)NC3(CCC3)C(=O)N(C)[C@@H](C3CCCC3)C(=O)N(C)[C@H](C(=O)N(C)CC)CC(=O)N(C)[C@@H](CC(C)C)C(=O)N[C@@H]([C@@H](C)CC)C(=O)N(C)CC(=O)N(C)[C@H]3C/C=C\CCN(C3=O)[C@@H](Cc3ccc(C(F)(F)F)cc3)C(=O)N(C)CC(=O)N[C@@H](CCc3cc(F)c(C(F)(F)F)c(F)c3)C(=O)N2C1 [PP1300, (2S,8S,12R,14S,20S,23S,27S,30S,36S,38Z)-20-cyclopentyl-8-[2-[3,5-difluoro-4-(trifluoromethyl)phenyl]ethyl]-12-ethoxy-N-ethyl-27-isobutyl-N,4,19,22,26,32,35-heptamethyl-30-[(1S)-1-methylpropyl]-3,6,9,15,18,21,25,28,31,34,42-undecaoxo-2-[[4-(trifluoromethyl)phenyl]methyl]spiro[1,4,7,10,16,19,22,26,29,32,35-undecazatricyclo[34.5.1.0^10,14]dotetracont-38-ene-17,1′-cyclobutane]-23-carboxamide] | – | – | – | A (a compound having 10 or more and less than 20 is denoted as A) | A (a compound having 10 or more and less than 20 is denoted as A) | 0.082
4 | CCO[C@@H]1C[C@H]2C(=O)NC3(CCC3)C(=O)N(C)[C@@H](C3CCCC3)C(=O)N(C)[C@H](C(=O)N(C)CC)CC(=O)N(C)[C@@H](CC3CC3)C(=O)N[C@@H]([C@@H](C)CC)C(=O)N(C)CC(=O)N(C)[C@H]3C/C=C\CCN(C3=O)[C@@H](Cc3ccc(C(F)(F)F)cc3)C(=O)N(C)CC(=O)N[C@@H](CCc3cc(F)c(C(F)(F)F)c(F)c3)C(=O)N2C1 [PP1301] | – | – | – | A (a compound having 10 or more and less than 20 is denoted as A) | A (a compound having 10 or more and less than 20 is denoted as A) | 0.083
5 | CCO[C@@H]1C[C@H]2C(=O)NC3(CCC3)C(=O)N(C)[C@@H](C3CCCC3)C(=O)N(C)[C@H](C(=O)N(C)CC)CC(=O)N(C)[C@@H](C)C(=O)N[C@@H]([C@@H](C)CC)C(=O)N(C)CC(=O)N(C)[C@H]3C/C=C\CCN(C3=O)[C@@H](Cc3ccc(C(F)(F)F)cc3)C(=O)N(C)CC(=O)N[C@@H](CCc3cc(F)c(C(F)(F)F)c(F)c3)C(=O)N2C1 [PP1302, (2S,8S,12R,14S,20S,23S,27S,30S,36S,38Z)-20-cyclopentyl-8-[2-[3,5-difluoro-4-(trifluoromethyl)phenyl]ethyl]-12-ethoxy-N-ethyl-N,4,19,22,26,27,32,35-octamethyl-30-[(1S)-1-methylpropyl]-3,6,9,15,18,21,25,28,31,34,42-undecaoxo-2-[[4-(trifluoromethyl)phenyl]methyl]spiro[1,4,7,10,16,19,22,26,29,32,35-undecazatricyclo[34.5.1.0^10,14]dotetracont-38-ene-17,1′-cyclobutane]-23-carboxamide] | – | – | – | A (a compound having 10 or more and less than 20 is denoted as A) | A (a compound having 10 or more and less than 20 is denoted as A) | 0.057
6 | CCO[C@@H]1C[C@H]2C(=O)NC3(CCC3)C(=O)N(C)[C@@H](C3CCCC3)C(=O)N(C)[C@H](C(=O)N(C)CC)CC(=O)N(C)[C@@H](CC(F)F)C(=O)N[C@@H]([C@@H](C)CC)C(=O)N(C)CC(=O)N(C)[C@H]3C/C=C\CCN(C3=O)[C@@H](Cc3ccc(C(F)(F)F)cc3)C(=O)N(C)CC(=O)N[C@@H](CCc3cc(F)c(C(F)(F)F)c(F)c3)C(=O)N2C1 [PP1303] | – | – | – | A (a compound having 10 or more and less than 20 is denoted as A) | AA (a compound having 20 or more is denoted as AA) | 0.068
7 | CCC[C@H]1C(=O)N[C@@H]([C@@H](C)CC)C(=O)N(C)CC(=O)N(C)[C@H]2C/C=C\CCN(C2=O)[C@@H](Cc2ccc(C(F)(F)F)cc2)C(=O)N(C)CC(=O)N[C@@H](CCc2cc(F)c(C(F)(F)F)c(F)c2)C(=O)N2C[C@H](OCC)C[C@H]2C(=O)NC2(CCC2)C(=O)N(C)[C@@H](C2CCCC2)C(=O)N(C)[C@H](C(=O)N(C)CC)CC(=O)N1C [PP1304, (2S,8S,12R,14S,20S,23S,27S,30S,36S,38Z)-20-cyclopentyl-8-[2-[3,5-difluoro-4-(trifluoromethyl)phenyl]ethyl]-12-ethoxy-N-ethyl-N,4,19,22,26,32,35-heptamethyl-30-[(1S)-1-methylpropyl]-3,6,9,15,18,21,25,28,31,34,42-undecaoxo-27-propyl-2-[[4-(trifluoromethyl)phenyl]methyl]spiro[1,4,7,10,16,19,22,26,29,32,35-undecazatricyclo[34.5.1.0^10,14]dotetracont-38-ene-17,1′-cyclobutane]-23-carboxamide] | – | – | – | A (a compound having 10 or more and less than 20 is denoted as A) | A (a compound having 10 or more and less than 20 is denoted as A) | 0.07
8 | CCO[C@@H]1C[C@H]2C(=O)NC3(CCC3)C(=O)N(C)[C@@H](C3CCCC3)C(=O)N(C)[C@H](C(=O)N(CC)CC)CC(=O)N(C)[C@@H](CC)C(=O)N[C@@H]([C@@H](C)CC)C(=O)N(C)CC(=O)N(C)[C@H]3C/C=C\CCN(C3=O)[C@@H](Cc3ccc(C(F)(F)F)cc3)C(=O)N(C)CC(=O)N[C@@H](CCc3cc(F)c(C(F)(F)F)c(F)c3)C(=O)N2C1 [PP1305, (2S,8S,12R,14S,20S,23S,27S,30S,36S,38Z)-20-cyclopentyl-8-[2-[3,5-difluoro-4-(trifluoromethyl)phenyl]ethyl]-12-ethoxy-N,N,27-triethyl-4,19,22,26,32,35-hexamethyl-30-[(1S)-1-methylpropyl]-3,6,9,15,18,21,25,28,31,34,42-undecaoxo-2-[[4-(trifluoromethyl)phenyl]methyl]spiro[1,4,7,10,16,19,22,26,29,32,35-undecazatricyclo[34.5.1.0^10,14]dotetracont-38-ene-17,1′-cyclobutane]-23-carboxamide] | – | – | – | A (a compound having 10 or more and less than 20 is denoted as A) | AA (a compound having 20 or more is denoted as AA) | 0.12
9 | CCO[C@@H]1C[C@H]2C(=O)NC3(CCC3)C(=O)N(C)[C@@H](C3CCCC3)C(=O)N(C)[C@H](C(=O)N(CC)CC)CC(=O)N(C)[C@@H](CC(C)C)C(=O)N[C@@H]([C@@H](C)CC)C(=O)N(C)CC(=O)N(C)[C@H]3C/C=C\CCN(C3=O)[C@@H](Cc3ccc(C(F)(F)F)cc3)C(=O)N(C)CC(=O)N[C@@H](CCc3cc(F)c(C(F)(F)F)c(F)c3)C(=O)N2C1 [PP1306] | – | – | – | A (a compound having 10 or more and less than 20 is denoted as A) | AA (a compound having 20 or more is denoted as AA) | 0.2
10 | CCO[C@@H]1C[C@H]2C(=O)NC3(CCC3)C(=O)N(C)[C@@H](C3CCCC3)C(=O)N(C)[C@H](C(=O)N(CC)CC)CC(=O)N(C)[C@@H](C)C(=O)N[C@@H]([C@@H](C)CC)C(=O)N(C)CC(=O)N(C)[C@H]3C/C=C\CCN(C3=O)[C@@H](Cc3ccc(C(F)(F)F)cc3)C(=O)N(C)CC(=O)N[C@@H](CCc3cc(F)c(C(F)(F)F)c(F)c3)C(=O)N2C1 [PP1308, (2S,8S,12R,14S,20S,23S,27S,30S,36S,38Z)-20-cyclopentyl-8-[2-[3,5-difluoro-4-(trifluoromethyl)phenyl]ethyl]-12-ethoxy-N,N-diethyl-4,19,22,26,27,32,35-heptamethyl-30-[(1S)-1-methylpropyl]-3,6,9,15,18,21,25,28,31,34,42-undecaoxo-2-[[4-(trifluoromethyl)phenyl]methyl]spiro[1,4,7,10,16,19,22,26,29,32,35-undecazatricyclo[34.5.1.0^10,14]dotetracont-38-ene-17,1′-cyclobutane]-23-carboxamide] | – | – | – | A (a compound having 10 or more and less than 20 is denoted as A) | A (a compound having 10 or more and less than 20 is denoted as A) | 0.1
